Like-named read-outs stand apart in the source and are kept apart here. Where only a bound is given, the exact number is not on record here.

Experimental findings from US11414429B2, “Compound or pharmaceutically acceptable salt thereof” (RIKEN, priority 2016, dated 2022) are described below.

One assay deals with T1, tankyrase 1 (TNKS 1) (Homo sapiens, UniProt O95271).
T1 construct: 1,024-1,327aa; made in house; host or cells: cell-free protein synthesis system
Nature of the assay: Tankyrase inhibitory activity test (ELISA, self-polyADP ribosylation), tankyrase 1. Format: biochemical. The following applies: self-polyADP ribosylation. The method, boiled down:
(§1)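 IC50 was fitted to residual self-polyADP-ribosylation activity, detected by HRP-streptavidin chemiluminescence. Plate-bound Flag fusions (TNKS1 1,024-1,327aa SAM+PARP; TNKS2 613-1,116aa ANK5+SAM+PARP, cell-free synthesized) saw compound for 10 min at room temperature in 50 mM Tris-HCl pH 8.0, 4 mM MgCl2, 0.2 mM DTT. Reaction with 225 μM NAD/25 μM 6-biotin-17-NAD solution ran 45 min at 30 °C.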

For the next assay, the target named is T2, tankyrase 2 (TNKS 2) (Homo sapiens, UniProt Q9H2K2).
T2 construct: 613-1, 116aa; made in house; host or cells: cell-free protein synthesis system
In words: Tankyrase inhibitory activity test (ELISA, self-polyADP ribosylation), tankyrase 2. Format: biochemical. The following applies: self-polyADP ribosylation. The essentials:
as §1

Assay [1] relates to human colorectal cancer cell line, COLO-320DM. In words: Cell proliferation inhibitory activity test (Celltiter-Glo Luminescent Cell Viability Assay). Format: cell-based. The following applies: COLO-320DM cells, 96 hours. The essentials: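 GI50 is taken as the concentration halving cell growth versus 1% DMSO control, measured by ATP luminescence. Compound exposure lasted 96 h at 37° C. under 5% CO2, after overnight seeding in RPMI-1640 with 10% FBS and 2 mM glutamine.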

The mark [2] stands for this setting: tankyrase 1, ELISA, read-out: TNKS1 inhibitory activity (IC50 class).
Where [3] appears, read: tankyrase 2, ELISA, read-out: TNKS2 inhibitory activity (IC50 class).
Setting [4] is: read-out: COLO-320 DM cell proliferation inhibitory activity (GI50 class).
Setting [5] is: ELISA, class symbols, read-out: TNKS1 (inhibitory activity against tankyrase 1, IC50 value).
Where [6] appears, read: ELISA, class symbols, read-out: TNKS2 (inhibitory activity against tankyrase 2, IC50 value).
The mark [7] stands for this setting: class symbols, read-out: COLO-320 DM (cell proliferation inhibitory activity, GI50 value).

T1 sequence (O95271 1024-1327): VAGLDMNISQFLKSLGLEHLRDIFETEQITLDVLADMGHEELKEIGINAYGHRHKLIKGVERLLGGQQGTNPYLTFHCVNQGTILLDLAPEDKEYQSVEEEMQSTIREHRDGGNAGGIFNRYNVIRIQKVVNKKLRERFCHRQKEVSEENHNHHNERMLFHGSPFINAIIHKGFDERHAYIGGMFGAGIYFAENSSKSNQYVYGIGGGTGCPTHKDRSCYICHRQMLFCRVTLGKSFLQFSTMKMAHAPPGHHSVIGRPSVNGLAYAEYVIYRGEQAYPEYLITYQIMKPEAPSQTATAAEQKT
T2 sequence (Q9H2K2 613-1166): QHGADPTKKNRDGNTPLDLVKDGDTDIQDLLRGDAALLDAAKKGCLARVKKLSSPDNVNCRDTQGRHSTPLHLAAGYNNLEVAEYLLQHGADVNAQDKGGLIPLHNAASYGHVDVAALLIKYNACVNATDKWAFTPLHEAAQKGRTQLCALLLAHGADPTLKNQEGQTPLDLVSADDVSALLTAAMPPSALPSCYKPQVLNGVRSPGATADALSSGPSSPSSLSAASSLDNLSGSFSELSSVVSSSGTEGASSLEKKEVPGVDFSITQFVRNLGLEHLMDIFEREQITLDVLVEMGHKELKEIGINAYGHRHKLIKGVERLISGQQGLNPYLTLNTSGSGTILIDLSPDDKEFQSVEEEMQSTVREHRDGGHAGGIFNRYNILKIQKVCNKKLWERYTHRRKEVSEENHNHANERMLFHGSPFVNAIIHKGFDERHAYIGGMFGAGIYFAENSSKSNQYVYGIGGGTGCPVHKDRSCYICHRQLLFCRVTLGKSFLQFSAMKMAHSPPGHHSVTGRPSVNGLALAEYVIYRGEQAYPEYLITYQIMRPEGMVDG

For the compound `COCCOc1cc(F)c2c(c1)N(CCO)C(=O)C21CCN(c2nc3c(c(=O)[nH]2)CCCN3C)CC1` [Example 383, 4-fluoro-1-(2-hydroxy-ethyl)-6-(2-methoxyethoxy-1′-(8-methyl-4-oxo-3,4,5,6,7,8-hexahydropyrido [2,3-d]pyrimidin-2-yl))spiro [indoline-3,4′-piperidin]-2-one], the half-inhibitory concentration (IC50) at tankyrase 1 (TNKS 1) (setting [2]) and at tankyrase 2 (TNKS 2) (setting [3]) was less than 20 nM throughout. Further, in assay [1] (setting [4]), the GI50 fell in the range of 100 to 600 nM.

With `CN1CCCc2c1nc(N1CCC3(CC1)C(=O)N(CCO)c1cc(O)cc(F)c13)[nH]c2=O` [Example 384, 4-fluoro-6-hydroxy-1-(2-hydroxyethyl)-1′-(8-methyl-4-oxo-3,4,5,6,7,8-hexahydropyrido [2,3-d]pyrimidin-2-yl) spiro[indoline-3,4′-piperidin]-2-one], the IC50 on tankyrase 1 (TNKS 1) (setting [2]) and at tankyrase 2 (TNKS 2) (setting [3]) was less than 20 nM in each case. For the same compound, the GI50 in assay [1] (setting [4]) lay within 100 to 600 nM.

For the compound `CN1CCCc2c1nc(N1CCC3(CC1)C(=O)N(CCO)c1cc(OCCN4CCOCC4)cc(F)c13)[nH]c2=O` [Example 386, 4-fluoro-1-(2-hydroxy-ethyl)-1′-(8-methyl-4-oxo-3,4,5,6,7,8-hexahydropyrido [2,3-d]pyrimidin-2-yl)-6-(2-morpholino-ethoxy)spiro [indoline-3,4′-piperidin]-2-one], the IC50 on tankyrase 1 (TNKS 1) (setting [2]) and on tankyrase 2 (TNKS 2) (setting [3]) was less than 20 nM in each case. Also, the GI50 in assay [1] (setting [4]) is 600 to 1000 nM.

On to `CN1CCN(c2cc(F)c3c(c2)N(C)C(=O)C32CCN(c3nc4c(c(=O)[nH]3)CCCN4C)CC2)CC1` [Example 387, 4-fluoro-1-methyl-1′-(8-methyl-4-oxo-3,4,5,6,7,8-hexahydropyrido [2,3-d]pyrimidin-2-yl)-6-(4-methylpiperazin-1-yl)spiro [indoline-3,4′-piperidin]-2-one], for which the IC50 on tankyrase 1 (TNKS 1) (setting [2]) and on tankyrase 2 (TNKS 2) (setting [3]) was less than 20 nM throughout. In addition, the GI50 in assay [1] (setting [4]) was less than 100 nM.

Consider `CN1CCCc2c1nc(N1CCC3(CC1)C(=O)N(C)c1cc(OCC4COC4)cc(F)c13)[nH]c2=O` [Example 388, 4-fluoro-1-methyl-1′-(8-methyl-4-oxo-3,4,5,6,7,8-hexahydropyrido [2,3-d]pyrimidin-2-yl)-6-(oxetan-3-ylmethoxy) spiro[indoline-3,4′-piperidin]-2-one], for which the half-maximal inhibitory concentration (IC50) at tankyrase 1 (TNKS 1) (setting [2]) and on tankyrase 2 (TNKS 2) (setting [3]) was less than 20 nM each time. For the same compound, the GI50 in assay [1] (setting [4]) is less than 100 nM.

Take `CN1CCCc2c1nc(N1CCC3(CC1)C(=O)N(C)c1cc(OC4CCOCC4)cc(F)c13)[nH]c2=O` [Example 389, 4-fluoro-1-methyl-1′-(8-methyl-4-oxo-3,4,5,6,7,8-hexahydropyrido [2,3-d]pyrimidin-2-yl)-6-[(tetrahydro-2H-pyran-4-yl)oxy]spiro [indoline-3,4′-piperidin]-2-one]: the IC50 on tankyrase 1 (TNKS 1) (setting [2]) and at tankyrase 2 (TNKS 2) (setting [3]) was less than 20 nM throughout. The GI50 in assay [1] (setting [4]) was less than 100 nM.

With `C[C@@H]1CN(c2cc(F)c3c(c2)N(C)C(=O)C32CCN(c3nc4c(c(=O)[nH]3)CCCN4C)CC2)C[C@H](C)N1` [Example 390, 6-(cis-3,5-dimethyl-piperazin-1-yl)-4-fluoro-1-methyl-1′-(8-methyl-4-oxo-3,4,5,6,7,8-hexahydropyrido [2,3-d]pyrimi-din-2-yl) spiro[indoline-3,4′-piperidin]-2(1H)-one], the IC50 at tankyrase 1 (TNKS 1) (setting [5]) and on tankyrase 2 (TNKS 2) (setting [6]) was less than 20 nM each time. Moreover, the GI50 in assay [1] (setting [7]) lay within 100 to 600 nM.

On to `CN1CCCc2c1nc(N1CCC3(CC1)C(=O)N(C)c1cc(N4CC5CCC(C4)N5)cc(F)c13)[nH]c2=O` [Example 391, 6-(3,8-diazabicyclo [3.2.1]octan-3-yl)-4-fluoro-1-methyl-1′-(8-methyl-4-oxo-3,4,5,6,7,8-hexahydro-pyrido[2,3-d]pyrimidin-2-yl) spiro[indoline-3,4′-piperidin]-2(1H)-one], for which the IC50 on tankyrase 1 (TNKS 1) (setting [5]) and on tankyrase 2 (TNKS 2) (setting [6]) was less than 20 nM throughout. Moreover, the GI50 in assay [1] (setting [7]) lay within 600 to 1000 nM.

`CN1CCCc2c1nc(N1CCC3(CC1)C(=O)N(C)c1cc(OCC(=O)O)cc(F)c13)[nH]c2=O` [Example 392]: the IC50 at tankyrase 1 (TNKS 1) (setting [5]) and at tankyrase 2 (TNKS 2) (setting [6]) was less than 20 nM each time. Moreover, the GI50 in assay [1] (setting [7]) is 100 to 600 nM.

On to `CN1CCCc2c1nc(N1CCC3(CC1)C(=O)N(C)c1cc(OCc4nnn[nH]4)cc(F)c13)[nH]c2=O` [Example 393, 6-[(1H-tetrazol-5-yl)methoxy]-4-fluoro-1-methyl-1′-(8-methyl-4-oxo-3,4,5,6,7,8-hexahydropyrido [2,3-d]pyrimidin-2-yl)spiro [indoline-3,4′-piperidin]-2(1H)-one], for which the IC50 on tankyrase 1 (TNKS 1) (setting [5]) and at tankyrase 2 (TNKS 2) (setting [6]) was less than 20 nM each time. For the same compound, the GI50 in assay [1] (setting [7]) was in the range of 100 to 600 nM.

Regarding `CN1CCCc2c1nc(N1CCC3(CC1)C(=O)N(C)c1cc(OCCN4CCCC4CO)cc(F)c13)[nH]c2=O` (stereo not drawn) [Example 394, 4-fluoro-6-{2-[2-(hy-droxymethyl)pyrrolidin-1-yl]ethoxy}-1-methyl-1′-(8-methyl-4-oxo-3,4,5,6,7,8-hexahydropyrido [2,3-d]pyrimidin-2-yl)spiro [indoline-3,4′-piperidin]-2(1H)-one], the IC50 at tankyrase 1 (TNKS 1) (setting [5]) and at tankyrase 2 (TNKS 2) (setting [6]) was less than 20 nM in each case. Further, in assay [1] (setting [7]), the GI50 lay within 600 to 1000 nM.

On to `CN1CCCc2c(O)nc(N3CCC4(CC3)OC(=O)c3cc(OCCN5CCCC5)cc(F)c34)nc21` [Example 395, 4-fluoro-1′-(4-hydroxy-8-methyl-6,7-dihydro-5H-pyrido[2,3-d]pyrimidin-2-yl)-6-(2-pyrrolidin-1-ylethoxy)spiro[2-benzofuran-3,4′-piperidine]-1-one], for which the IC50 at tankyrase 1 (TNKS 1) (setting [5]) and at tankyrase 2 (TNKS 2) (setting [6]) was less than 20 nM in each case. Besides, in assay [1] (setting [7]), the GI50 is 600 to 1000 nM.

Take `CN(C)CCOc1ccc(Cl)c2c1N(C)C(=O)C21CCN(c2nc3c(c(=O)[nH]2)CCCN3C)CC1` [Example 396, 4-chloro-7-[2-(dimethylamino)ethoxy]-1-methyl-1′-(8-methyl-4-oxo-3,4,5,6,7,8-hexahydro-pyrido [2,3-d]pyrimidin-2-yl)spiro [indoline-3,4′-piperidin]-2(1H)-one]: the half-inhibitory concentration (IC50) on tankyrase 1 (TNKS 1) (setting [5]) and on tankyrase 2 (TNKS 2) (setting [6]) was less than 20 nM in each case. Further, in assay [1] (setting [7]), the GI50 fell in the range of 100 to 600 nM.

With `COCCN1CCN(c2cc(F)c3c(c2)N(C)C(=O)C32CCN(c3nc4c(c(=O)[nH]3)CCCN4C)CC2)CC1` [Example 397, 4-fluoro-6-(4-(2-methoxy-ethyl)piperazin-1-yl)-1-methyl-1′-(8-methyl-4-oxo-3,4,5,6,7,8-hexahydro-pyrido [2,3-d]pyrimidin-2-yl) spiro[indoline-3,4′-piperidin]-2(1H)-one], the half-maximal inhibitory concentration (IC50) on tankyrase 1 (TNKS 1) (setting [5]) and at tankyrase 2 (TNKS 2) (setting [6]) was 20 to 200 nM in each case. In addition, in assay [1] (setting [7]), the GI50 lay in the range of 100 to 600 nM.

For the compound `CN1CCCc2c1nc(N1CCC3(CC1)C(=O)N(C)c1cc(N4CCN(C5COC5)CC4)cc(F)c13)[nH]c2=O` [Example 398, 4-fluoro-1-methyl-1′-(8-methyl-4-oxo-3,4,5,6,7,8-hexahydro-pyrido [2,3-d]pyrimidin-2-yl)-6-(4-(oxetan-3-yl)piperazin-1-yl)spiro [indoline-3,4′-piperidin]-2(1H)-one], the concentration for half-maximal inhibition (IC50) on tankyrase 1 (TNKS 1) (setting [5]) and at tankyrase 2 (TNKS 2) (setting [6]) was less than 20 nM throughout. Further, in assay [1] (setting [7]), the GI50 was 100 to 600 nM.

With `CN1CCCc2c1nc(N1CCC3(CC1)C(=O)N(CC(F)(F)F)c1cc(OCCO)cc(F)c13)[nH]c2=O` [Example 399, 4-fluoro-6-(2-hydroxy-ethoxy)-1′-(8-methyl-4-oxo-3,4,5,6,7,8-hexahydro-pyrido [2,3-d]pyri-midin-2-yl)-1-(2,2,2-trifluoroethyl) spiro [indoline-3,4′-piperidin]-2(1H)-one], the half-maximal inhibitory concentration (IC50) on tankyrase 1 (TNKS 1) (setting [5]) and on tankyrase 2 (TNKS 2) (setting [6]) was less than 20 nM each time. Moreover, the GI50 in assay [1] (setting [7]) fell in the range of 100 to 600 nM.

As for `CN(C)CCOc1cc(F)c2c(c1)N(CC(F)(F)F)C(=O)C21CCN(c2nc3c(c(=O)[nH]2)CCCN3C)CC1` [Example 400, 6-[2-(di-methylamino)ethoxy]-4-fluoro-1′-(8-methyl-4-oxo-3,4,5,6,7,8-hexahydro-pyrido [2,3-d]pyrimidin-2-yl)-1-(2,2,2-trifluoroethyl) spiro[indoline-3,4′-piperidin]-2(1H)-one], the IC50 on tankyrase 1 (TNKS 1) (setting [5]) and at tankyrase 2 (TNKS 2) (setting [6]) was 20 to 200 nM each time. The GI50 in assay [1] (setting [7]) lay in the range of 100 to 600 nM.

With `CN(C)CCOc1ccc(F)c2c1N(C)C(=O)C21CCN(c2nc3c(c(=O)[nH]2)CCCN3C)CC1` [Example 401, 7-[2-(dimethylamino)ethoxy]-4-fluoro-1′-(4-hy-droxy-8-methyl-6,7-di-hydro-5H-pyrido[2,3-d]pyrimidin-2-yl)-1-methyl spiro[indole-3,4′-piperidin]-2-one], the IC50 on tankyrase 1 (TNKS 1) (setting [5]) and on tankyrase 2 (TNKS 2) (setting [6]) was less than 20 nM each time. Also, the GI50 in assay [1] (setting [7]) is 100 to 600 nM.

As for `CN1CCN(c2cc(F)c3c(c2)N(CC#N)C(=O)C32CCN(c3nc4c(c(=O)[nH]3)CCCN4C)CC2)CC1` [Example 402, [4-fluoro-1′-(8-methyl-4-oxo-3,4,5,6,7,8-hexahydropyrido [2,3-d]py-rimidin-2-yl)-6-(4-methyl-piperazin-1-yl)-2-oxo-spiro[indoline-3,4′-piperidin]-1(2H)-yl] acetonitrile], the results for the IC50 on tankyrase 1 (TNKS 1) (setting [5]) and at tankyrase 2 (TNKS 2) (setting [6]) were 20 to 200 nM and less than 20 nM, respectively. Further, in assay [1] (setting [7]), the GI50 lay in the range of 100 to 600 nM.
